{
  "source": "ChEMBL document CHEMBL1201862",
  "about": "“PubChem BioAssay data set” (2004)",
  "key": {"[1]": {"target": "Intestinal-type alkaline phosphatase (Mus musculus, UniProt P24822)", "test": "PubChem AID 488785", "format": "functional"}, "[2]": {"test_system": "Vero", "test": "Vero cell cytotoxicity, cytotoxicity control for flavivirus capping enzyme inhibitors (AID 588742)", "format": "functional", "details": "Chlorocebus sabaeus"}, "[3]": {"target": "Heat shock cognate 71 kDa protein (Homo sapiens, UniProt P11142)", "test": "In Vitro Hsc70 Dose Response Fluorescence Polarization Assay. [Related pubchem assays: 1072 ]"}, "[4]": {"target": "Large T antigen (Simian virus 40, UniProt P03070)", "format": "functional, Betapolyomavirus macacae"}, "[5]": {"target": "Serine/threonine-protein kinase TBK1 (Homo sapiens, UniProt Q9UHD2)", "sequence (Q9UHD2 whole entry)": "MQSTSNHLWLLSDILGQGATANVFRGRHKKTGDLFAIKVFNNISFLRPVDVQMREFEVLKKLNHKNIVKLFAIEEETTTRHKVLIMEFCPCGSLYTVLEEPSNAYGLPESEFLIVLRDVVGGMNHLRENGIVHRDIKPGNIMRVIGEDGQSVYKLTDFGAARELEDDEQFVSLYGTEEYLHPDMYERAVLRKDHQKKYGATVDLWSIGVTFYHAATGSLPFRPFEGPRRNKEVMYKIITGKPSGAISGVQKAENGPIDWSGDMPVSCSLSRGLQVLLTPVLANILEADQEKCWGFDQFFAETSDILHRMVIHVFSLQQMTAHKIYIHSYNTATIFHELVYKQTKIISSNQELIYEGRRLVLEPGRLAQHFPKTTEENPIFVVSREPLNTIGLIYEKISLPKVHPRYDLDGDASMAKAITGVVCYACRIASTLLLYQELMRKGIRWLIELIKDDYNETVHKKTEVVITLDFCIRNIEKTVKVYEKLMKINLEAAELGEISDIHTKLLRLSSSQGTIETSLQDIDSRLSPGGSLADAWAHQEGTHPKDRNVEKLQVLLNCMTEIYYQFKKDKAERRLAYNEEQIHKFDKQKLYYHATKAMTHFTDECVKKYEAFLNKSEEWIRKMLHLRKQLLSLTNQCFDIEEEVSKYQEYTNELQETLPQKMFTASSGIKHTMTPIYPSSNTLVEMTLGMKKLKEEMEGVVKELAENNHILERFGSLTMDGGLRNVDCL", "test": "Navigating the Kinome. Panel member name: TBK1", "format": "functional"}, "[6]": {"target": "Receptor-type tyrosine-protein kinase FLT3 (Homo sapiens, UniProt P36888)", "sequence (P36888 whole entry)": "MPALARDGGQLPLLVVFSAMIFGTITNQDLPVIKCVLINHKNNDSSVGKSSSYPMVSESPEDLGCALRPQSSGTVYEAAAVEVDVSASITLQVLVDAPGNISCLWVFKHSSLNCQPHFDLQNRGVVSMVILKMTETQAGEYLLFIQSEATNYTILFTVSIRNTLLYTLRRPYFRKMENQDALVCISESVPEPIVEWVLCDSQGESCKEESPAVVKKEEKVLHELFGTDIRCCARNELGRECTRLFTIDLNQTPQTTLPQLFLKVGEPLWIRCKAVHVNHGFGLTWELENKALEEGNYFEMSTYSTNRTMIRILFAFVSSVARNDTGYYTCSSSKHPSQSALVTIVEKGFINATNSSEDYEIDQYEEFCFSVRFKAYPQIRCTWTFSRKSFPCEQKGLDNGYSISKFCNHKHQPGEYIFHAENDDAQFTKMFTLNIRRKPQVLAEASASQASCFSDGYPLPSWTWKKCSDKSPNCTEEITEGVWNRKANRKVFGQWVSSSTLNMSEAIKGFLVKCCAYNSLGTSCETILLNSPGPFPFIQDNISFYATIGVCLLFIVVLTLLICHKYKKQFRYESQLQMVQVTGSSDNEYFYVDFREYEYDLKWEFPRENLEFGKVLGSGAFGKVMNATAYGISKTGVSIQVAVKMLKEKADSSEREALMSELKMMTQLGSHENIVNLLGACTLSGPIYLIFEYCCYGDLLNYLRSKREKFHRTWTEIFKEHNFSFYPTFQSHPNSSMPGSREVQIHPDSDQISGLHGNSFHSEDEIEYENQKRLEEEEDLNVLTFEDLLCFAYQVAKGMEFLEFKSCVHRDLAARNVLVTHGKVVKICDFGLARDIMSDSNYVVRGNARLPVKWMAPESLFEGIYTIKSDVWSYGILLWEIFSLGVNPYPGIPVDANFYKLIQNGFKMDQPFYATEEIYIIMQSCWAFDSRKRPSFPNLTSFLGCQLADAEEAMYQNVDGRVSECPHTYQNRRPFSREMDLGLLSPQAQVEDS", "format": "functional"}, "[7]": {"target": "Inhibitor of nuclear factor kappa-B kinase subunit epsilon (Homo sapiens, UniProt Q14164)", "sequence (Q14164 whole entry)": "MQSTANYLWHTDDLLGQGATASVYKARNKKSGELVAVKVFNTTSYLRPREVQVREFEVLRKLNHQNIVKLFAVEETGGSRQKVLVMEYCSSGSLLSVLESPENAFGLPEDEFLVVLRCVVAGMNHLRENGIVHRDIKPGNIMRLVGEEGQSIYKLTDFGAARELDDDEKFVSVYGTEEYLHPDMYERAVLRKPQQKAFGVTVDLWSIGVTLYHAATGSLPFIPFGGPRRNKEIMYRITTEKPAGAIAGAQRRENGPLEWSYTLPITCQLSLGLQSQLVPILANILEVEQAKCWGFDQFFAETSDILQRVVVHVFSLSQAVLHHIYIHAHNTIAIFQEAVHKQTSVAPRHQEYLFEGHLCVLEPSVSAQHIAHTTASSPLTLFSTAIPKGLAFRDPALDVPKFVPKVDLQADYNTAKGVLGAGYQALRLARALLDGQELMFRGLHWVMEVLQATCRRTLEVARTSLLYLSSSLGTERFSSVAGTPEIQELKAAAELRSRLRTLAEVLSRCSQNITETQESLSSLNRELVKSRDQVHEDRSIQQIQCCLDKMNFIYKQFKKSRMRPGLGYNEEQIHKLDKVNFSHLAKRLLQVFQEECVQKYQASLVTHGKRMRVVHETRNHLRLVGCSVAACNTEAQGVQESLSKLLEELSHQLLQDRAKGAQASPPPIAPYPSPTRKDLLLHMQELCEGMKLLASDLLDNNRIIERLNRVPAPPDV", "test": "Navigating the Kinome. Panel member name: IKBKE", "format": "functional"}, "[8]": {"target": "Heat shock protein HSP 90-alpha (Homo sapiens, UniProt P07900)", "test": "Luminescence-based dose response biochemical high throughput screening assay for inhibitors of the Heat Shock Protein 90 (HSP90). [Related pubchem assays: 1831 (Summary AID.), 1846 (Confirmation screen.), 1789 (Primary screen.)]"}, "[9]": {"target": "Albumin (Bos taurus, UniProt P02769)", "sequence (P02769 whole entry)": "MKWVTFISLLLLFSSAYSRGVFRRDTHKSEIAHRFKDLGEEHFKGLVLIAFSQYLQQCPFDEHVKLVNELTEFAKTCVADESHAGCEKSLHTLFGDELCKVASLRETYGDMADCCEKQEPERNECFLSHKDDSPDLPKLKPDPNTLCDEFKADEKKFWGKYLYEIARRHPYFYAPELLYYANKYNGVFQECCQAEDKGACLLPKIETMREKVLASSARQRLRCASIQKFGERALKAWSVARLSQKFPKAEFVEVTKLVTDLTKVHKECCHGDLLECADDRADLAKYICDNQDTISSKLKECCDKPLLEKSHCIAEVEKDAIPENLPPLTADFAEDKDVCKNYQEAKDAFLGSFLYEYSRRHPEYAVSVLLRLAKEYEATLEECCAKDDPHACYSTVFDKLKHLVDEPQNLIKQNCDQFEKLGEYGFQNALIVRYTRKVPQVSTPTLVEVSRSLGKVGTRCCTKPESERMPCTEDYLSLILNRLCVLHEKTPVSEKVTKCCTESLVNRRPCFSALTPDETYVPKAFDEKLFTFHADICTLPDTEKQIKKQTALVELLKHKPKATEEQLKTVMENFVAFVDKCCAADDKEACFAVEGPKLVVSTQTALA", "test": "Counterscreen for inhibitors of T-cell receptor (TCR)-CD3 interaction: Fluorescence-based biochemical high throughput dose response assay to identify inhibitors of T-cell receptor (TCR)-CD3 interaction using a TAMRA-labeled BSA probe.", "format": "functional"}, "[10]": {"target": "Cyclin-dependent kinase 2 (Homo sapiens, UniProt P24941)", "format": "functional"}, "[11]": {"target": "Tyrosine-protein kinase BTK (Homo sapiens, UniProt Q06187)", "sequence (Q06187 whole entry)": "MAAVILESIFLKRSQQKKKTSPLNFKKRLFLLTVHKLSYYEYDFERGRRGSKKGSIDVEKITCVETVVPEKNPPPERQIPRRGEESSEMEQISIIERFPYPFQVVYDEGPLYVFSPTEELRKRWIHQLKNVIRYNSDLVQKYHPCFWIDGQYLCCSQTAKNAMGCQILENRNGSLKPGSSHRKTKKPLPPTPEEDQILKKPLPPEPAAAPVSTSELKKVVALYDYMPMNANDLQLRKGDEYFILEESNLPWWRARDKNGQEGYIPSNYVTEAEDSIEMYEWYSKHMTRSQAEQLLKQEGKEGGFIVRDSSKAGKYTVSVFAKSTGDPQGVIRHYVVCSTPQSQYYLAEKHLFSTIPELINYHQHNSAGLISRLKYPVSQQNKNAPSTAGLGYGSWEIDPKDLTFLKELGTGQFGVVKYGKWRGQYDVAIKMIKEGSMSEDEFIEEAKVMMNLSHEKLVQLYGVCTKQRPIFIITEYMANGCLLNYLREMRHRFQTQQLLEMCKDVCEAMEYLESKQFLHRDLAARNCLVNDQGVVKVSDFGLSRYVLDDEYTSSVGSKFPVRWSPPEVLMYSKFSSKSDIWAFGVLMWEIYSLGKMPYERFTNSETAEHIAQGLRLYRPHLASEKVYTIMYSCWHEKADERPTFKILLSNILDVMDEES", "format": "functional"}, "[12]": {"target": "Serine/threonine-protein kinase SIK2 (Homo sapiens, UniProt Q9H0K1)", "test": "Navigating the Kinome. Panel member name: SIK2", "format": "functional"}, "[13]": {"target": "Calcium/calmodulin-dependent protein kinase type II subunit beta (Homo sapiens, UniProt Q13554)", "sequence (Q13554 whole entry)": "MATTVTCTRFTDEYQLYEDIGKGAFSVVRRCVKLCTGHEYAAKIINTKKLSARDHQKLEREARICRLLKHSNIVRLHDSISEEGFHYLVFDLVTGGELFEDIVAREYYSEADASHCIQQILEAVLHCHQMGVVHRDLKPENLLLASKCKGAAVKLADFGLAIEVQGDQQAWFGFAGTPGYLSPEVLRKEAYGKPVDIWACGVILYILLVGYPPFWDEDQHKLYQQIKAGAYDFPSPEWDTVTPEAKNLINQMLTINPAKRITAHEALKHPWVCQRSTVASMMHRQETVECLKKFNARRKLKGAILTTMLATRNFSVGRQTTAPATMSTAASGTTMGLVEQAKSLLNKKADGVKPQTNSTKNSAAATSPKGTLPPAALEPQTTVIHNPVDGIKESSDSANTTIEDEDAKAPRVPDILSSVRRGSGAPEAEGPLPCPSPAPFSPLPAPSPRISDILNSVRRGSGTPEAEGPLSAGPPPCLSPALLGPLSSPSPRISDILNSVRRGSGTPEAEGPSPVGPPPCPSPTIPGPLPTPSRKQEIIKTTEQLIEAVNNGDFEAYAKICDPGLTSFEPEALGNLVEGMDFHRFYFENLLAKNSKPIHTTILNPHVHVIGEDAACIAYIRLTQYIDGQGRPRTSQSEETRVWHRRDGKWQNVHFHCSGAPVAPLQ", "format": "functional"}, "[14]": {"target": "3-phosphoinositide-dependent protein kinase 1 (Homo sapiens, UniProt O15530)", "sequence (O15530 whole entry)": "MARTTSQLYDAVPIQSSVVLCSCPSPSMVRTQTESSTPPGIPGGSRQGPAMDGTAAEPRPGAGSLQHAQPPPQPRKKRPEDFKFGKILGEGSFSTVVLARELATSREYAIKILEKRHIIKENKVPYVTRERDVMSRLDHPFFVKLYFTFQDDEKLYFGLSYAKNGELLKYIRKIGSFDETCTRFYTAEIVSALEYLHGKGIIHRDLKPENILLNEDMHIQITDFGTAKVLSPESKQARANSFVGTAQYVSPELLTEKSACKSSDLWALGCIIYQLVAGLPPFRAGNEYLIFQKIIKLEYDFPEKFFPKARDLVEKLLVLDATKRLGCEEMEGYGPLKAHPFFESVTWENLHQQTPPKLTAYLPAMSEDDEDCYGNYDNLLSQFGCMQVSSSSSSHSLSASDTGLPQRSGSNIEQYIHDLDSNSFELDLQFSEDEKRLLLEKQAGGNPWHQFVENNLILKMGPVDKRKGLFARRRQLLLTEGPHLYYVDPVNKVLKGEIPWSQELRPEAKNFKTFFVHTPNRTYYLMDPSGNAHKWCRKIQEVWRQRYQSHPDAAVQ", "format": "functional"}},
  "note": "Activity calls are given as the source filed them.",
  "data": [
    {"smiles": "O=C1/C(=C\\c2cccc(O)c2O)SC(=S)N1Cc1ccccc1", "values": [
      {"measurement": "IC50", "setting": "[1]", "result": "3.23 µM (active)"},
      {"measurement": "CC50", "setting": "[2]", "result": "16.1 µM (active)"}
    ]},
    {"smiles": "COc1cccc2c1NC(C(=O)O)C1CC=CC21", "note": "(centres undefined)", "values": [
      {"measurement": "IC50", "setting": "[3]", "result": "25.2 µM (active)"},
      {"measurement": "IC50", "setting": "[4]", "result": "42.5 µM (active)"}
    ]},
    {"smiles": "COc1c(-c2nc3ccccc3[nH]2)c(O)cc2oc(C)cc(=O)c12", "values": [
      {"measurement": "Ki", "setting": "[5]", "result": "1.58 µM (active)"},
      {"measurement": "Ki", "setting": "[6]", "result": "398 nM (active)"},
      {"measurement": "Ki", "setting": "[7]", "result": "2 µM (active)"}
    ]},
    {"smiles": "CCc1ccc(S(=O)(=O)/N=C2\\C=C(Nc3ccc(O)cc3)C(=O)c3ccccc32)cc1", "values": [
      {"measurement": "IC50", "setting": "[8]", "result": "1.28 µM (active)"}
    ]},
    {"smiles": "Cc1cc([N+](=O)[O-])cc(/C=N\\NC(=O)C2COc3ccccc3O2)c1O", "note": "(centres undefined)", "values": [
      {"measurement": "IC50", "setting": "[9]", "result": "> 94.2 µM (inactive)"}
    ]},
    {"smiles": "Cc1ccc(F)c(NC(=O)Nc2ccc(-c3cccc4[nH]nc(N)c34)cc2)c1", "note": "[LINIFANIB]", "values": [
      {"measurement": "Ki", "setting": "[10]", "result": "> 7.94 µM (inactive)"},
      {"measurement": "Ki", "setting": "[11]", "result": "> 6.31 µM (inactive)"},
      {"measurement": "Ki", "setting": "[12]", "result": "> 3.98 µM (inactive)"},
      {"measurement": "Ki", "setting": "[13]", "result": "3.98 µM (active)"},
      {"measurement": "Ki", "setting": "[14]", "result": "> 3.98 µM (inactive)"}
    ]}
  ]
}
